Here are results for four compounds from ChEMBL document CHEMBL3785053, “Synthesis and screening of ursolic acid-benzylidine derivatives as potential anti-cancer agents” (Eur J Med Chem, 2016).

Active and inactive are the calls of the source. No cut-off for these calls is given here.

The subject of data set [1] is MCF7. Kind of data set: Cytotoxicity against human MCF7 cells after 48 hrs by MTT assay. In kind it is functional, cell-based. Particulars: MCF7, 48 h.
Data set [2] in a line: Cytotoxicity against human HCT116 cells after 48 hrs by MTT assay. Format: functional, cell-based. Particulars: HCT-116, 48 h. Background: Formazan colour is commonly taken as a measure of viable cells.
In data set [3] the test system is A549. In words: Cytotoxicity against human A549 cells at 50 uM after 48 hrs by MTT assay. Format: functional. Particulars: A549, 48 h, read-out: GI.
The nature of data set [4]: Cytotoxicity against human FR2 cells after 48 hrs by MTT assay. Format: cell-based. The conditions noted are these: FR2, 48 h.
A short description of data set [5]: Cytotoxicity against human THP1 cells at 50 uM after 48 hrs by MTT assay. The conditions noted are these: THP-1, 48 h, read-out: GI. In kind it is functional.
Data set [6] is described as follows: Cytotoxicity against human HCT116 cells at 50 uM after 48 hrs by MTT assay. Format: functional. The conditions noted are these: HCT-116, 48 h, read-out: GI.
For data set [7], the system named is A549. Kind of data set: Cytotoxicity against human A549 cells after 48 hrs by MTT assay. Format: functional, cell-based. The conditions noted are these: A549, 48 h.
The nature of data set [8]: Cytotoxicity against human THP1 cells after 48 hrs by MTT assay. In kind it is functional, cell-based. The conditions noted are these: THP-1, 48 h.
Data set [9] in a line: Cytotoxicity against human FR2 cells at 50 uM after 48 hrs by MTT assay. The conditions noted are these: read-out: GI. Format: cell-based.
Data set [10] relates to MCF7. In words: Cytotoxicity against human MCF7 cells at 50 uM after 48 hrs by MTT assay. In kind it is functional. Particulars: MCF7, 48 h, read-out: GI.
A short description of data set [11]: Upregulation of Bax expression in human HCT116 cells at 20 uM after 24 hrs by Western blotting method. In kind it is functional, cell-based. The conditions noted are these: HCT-116.
The subject of data set [12] is HCT-116. In words: Induction of cell cycle arrest in human HCT116 cells assessed as accumulation at G2 phase at 20 uM after 48 hrs by propidium iodide staining-based flow cytometry (reference value: 32.43%). In kind it is functional. (Flow cytometry measures light scatter and fluorescence of single cells or particles in a stream.)
Data set [13] can be described thus: Induction of apoptosis in human HCT116 cells assessed as upregulation of caspase-9 expression at 20 uM after 24 hrs by Western blotting method. The conditions noted are these: HCT-116. Format: functional, cell-based.
The test system of data set [14] is HCT-116. In words: Induction of apoptosis in human HCT116 cells assessed as cell budding at 10 to 20 uM after 24 hrs by acridine orange/ethidium bromide staining-based fluorescence microscopy. In kind it is functional.
The nature of data set [15]: Downregulation of Bcl2 expression in human HCT116 cells at 20 uM after 24 hrs by Western blotting method. Format: functional, cell-based. Particulars: HCT-116. A general note: A western blot detects proteins with antibodies after separation by electrophoresis.
Data set [16] concerns HCT-116. Kind of data set: Induction of apoptosis in human HCT116 cells at 20 uM after 24 hrs by JC-1 staining-based fluorescence microscopy. Format: functional, cell-based.
Data set [17] relates to HCT-116. Kind of data set: Induction of apoptosis in human HCT116 cells at 20 uM after 24 hrs by Hoechst 33258 staining-based fluorescence microscopy. Format: functional, cell-based.
Data set [18] concerns HCT-116. Kind of data set: Induction of apoptosis in human HCT116 cells assessed as membrane blebbing at 10 to 20 uM after 24 hrs by acridine orange/ethidium bromide staining-based fluorescence microscopy. Format: functional, cell-based.
Data set [19] is described as follows: Induction of apoptosis in human HCT116 cells assessed as upregulation of caspase-3 expression at 20 uM after 24 hrs by Western blotting method. In kind it is functional, cell-based. The conditions noted are these: HCT-116.
Data set [20] relates to HCT-116. Kind of data set: Induction of apoptosis in human HCT116 cells assessed as pycnosis at 10 to 20 uM after 24 hrs by acridine orange/ethidium bromide staining-based fluorescence microscopy. In kind it is functional, cell-based.
Data set [21] relates to HCT-116. Kind of data set: Induction of cell cycle arrest in human HCT116 cells assessed as accumulation at G1 phase at 20 uM after 48 hrs by propidium iodide staining-based flow cytometry (reference value: 41.51%). Format: functional.

Usually IC50 stands for the concentration at which inhibition is half-maximal. Low readings indicate greater potency in that assay, high ones weaker potency in that assay. On to `C[C@H]1[C@H](C)CC[C@]2(C(=O)O)CC[C@]3(C)C(=CC[C@@H]4[C@@]5(C)CCC(=O)C(C)(C)[C@@H]5CC[C@]43C)[C@H]12` [URSONIC ACID], for which the concentration for half-maximal inhibition (IC50) with MCF7 [1] came out at 56 µM; in data set [2], 2.3 µM; in data set [4] it was 24 µM; in the data set on A549 [7], 15 µM; in [8] it was 13 µM. Also, the inhibition of growth at 50 µM in the data set on A549 [3] came out at 78%; in data set [5], 88%; in [6], 53%; in the data set on MCF7 [10] it was 42%. For the same compound, in data set [9], the inhibition at 48 h, 50 µM came out at 86%.

Turning to `C[C@H]1[C@H](C)CC[C@]2(C(=O)O)CC[C@]3(C)C(=CC[C@@H]4[C@@]5(C)C/C(=C\c6ccccc6)C(=O)C(C)(C)[C@@H]5CC[C@]43C)[C@H]12`, the half-inhibitory concentration (IC50) with MCF7 [1] was found to be 23 µM; in data set [2], 14 µM; in data set [4] it was 70 µM; in the data set on A549 [7], 18 µM; in data set [8], 16 µM. Moreover, the inhibition of growth at 50 µM in the data set with A549 [3] turned out to be 60%; in [5], 90%; in data set [6] it was 95%; in the data set on MCF7 [10], 98%. The inhibition at 48 h, 50 µM in data set [9] came to 90%.

With `COc1cccc(/C=C2\C[C@]3(C)[C@H]4CC=C5[C@@H]6[C@@H](C)[C@H](C)CC[C@]6(C(=O)O)CC[C@@]5(C)[C@]4(C)CC[C@H]3C(C)(C)C2=O)c1`, the 50% inhibitory concentration (IC50) in the data set on MCF7 [1] is 4.2 µM; in [2], 23 µM; in [4] it was 40 µM; with A549 [7] it was 0.65 µM; in [8], 12 µM. Also, the inhibition of growth at 50 µM in the data set with A549 [3] was determined as 84%; in data set [5], 95%; in data set [6], 65%; in the data set on MCF7 [10], 98%. For the same compound, the inhibition at 48 h, 50 µM in data set [9] was 85%.

As to `C[C@H]1[C@H](C)CC[C@]2(C(=O)O)CC[C@]3(C)C(=CC[C@@H]4[C@@]5(C)C/C(=C\c6cc(O)ccc6O)C(=O)C(C)(C)[C@@H]5CC[C@]43C)[C@H]12`, the IC50 in the data set with MCF7 [1] was 5.5 µM; in [2], less than 0.1 µM; in data set [4], 0.8 µM; with A549 [7], 0.55 µM; in data set [8], 0.9 µM. Also, the outcome (in data set [11]; in data set [13]; with HCT-116 [14]; in data set [15]; with HCT-116 [16]; in the data set with HCT-116 [17]) was Active. For the same compound, the outcome (with HCT-116 [18]; in data set [19]; in the data set with HCT-116 [20]) was Active. The results for the Activity in the data set with HCT-116 [12] and with HCT-116 [21] were 11.65% and 65.58%, respectively. Moreover, the inhibition of growth at 50 µM with A549 [3] came to 93%; in data set [5] it was 94%; in [6], 99%; with MCF7 [10], 100%. Besides, in data set [9], the inhibition at 48 h, 50 µM came to 91%.
